The text below walks through data of US4100346A, “Certain 7(o-amino-methyl- or methylaminomethylphenyl- or cyclohexadienyl- or thienylacetamide)-3[1-carboxymethyl-(or ethyl- or propyl-)-tetrazol-5-ylthiomethyl]-3-cephem-4-carboxylic acids” (Bristol-Myers Company, priority 1976, dated 1978).

The nature of data set [1]: Solubility in water, buffer or urine.
The next data set in a line: physchem. The conditions noted are these: solid.
The next data set relates to D. pneumoniae. In words: MIC by Tube Dilution Technique in Nutrient Broth (Example 9 table). The conditions noted are these: Streptococcus pneumoniae; Dp-4 D. pneumoniae A9585. The data set is classed as cell-based. From the text:
(§1) MIC (mcg./ml.) by Tube Dilution Technique in Nutrient Broth.

Another data set relates to E. cloacae. Described as above. In kind it is cell-based. The note with it: Enterobacter cloacae; El-1 E. cloacae A9656.
Excerpt: as §1

In data set [2] the test system is E. coli. Described as above. The conditions noted are these: Escherichia coli. The data set is classed as cell-based.
Excerpt: as §1

Data set [3] has as its system K. pneumoniae. The description is as above. The note with it: Klebsiella pneumoniae. The data set is classed as cell-based.
Excerpt: as §1

For another data set, the system named is P. aeruginosa. Described as above. The data set is classed as cell-based. The note with it: Pseudomonas aeruginosa; P. aeruginosa A9843.
Excerpt: as §1

Another data set deals with P. mirabilis. The data set is described as above. In kind it is cell-based. The conditions noted are these: Proteus mirabilis; Pm-2 P. mirabilis A9900.
Excerpt: as §1

For another data set, the system named is P. morganii. Described as above. In kind it is cell-based. The conditions noted are these: Morganella morganii; Pg-8 P. morganii A15153.
Excerpt: as §1

Data set [4] concerns S. aureus. Described as above. The data set is classed as cell-based. The note with it: Staphylococcus aureus.
Excerpt: as §1

A further data set has as its system S. enteritidis. The description is as above. The data set is classed as cell-based. The note with it: Salmonella enterica; Se-1 S. enteritidis A9531.
Excerpt: as §1

In another data set the test system is S. marcescens. The description is as above. In kind it is cell-based. The conditions noted are these: Serratia marcescens; Sm-1 S. marcescens A20019.
Excerpt: as §1

For another data set, the system named is S. pyogenes. The data set is described as above. In kind it is cell-based. The conditions noted are these: Streptococcus pyogenes; Sp-3 S. pyogenes A9604.
Excerpt: as §1

A further data set relates to Str. pneumoniae. Nature of the data set: M.I.C. by Tube Dilution in Nutrient Broth (Examples 1 and 2). In kind it is cell-based. The conditions noted are these: Streptococcus pneumoniae; Str. pneumoniae A9585 (10^-3 dilution of overnight broth culture); 45% Antibiotic Assay Broth + 50% Nutrient Broth + 5% serum. From the text:
(§2) *45% Antibiotic Assay Broth + 50% Nutrient Broth + 5% serum
(§3) **Dilution of overnight broth culture

The next data set has as its system Str. pyogenes. The data set is described as above. The data set is classed as cell-based. The note with it: Streptococcus pyogenes; Str. pyogenes A9604 (10^-3); 45% Antibiotic Assay Broth + 50% Nutrient Broth + 5% serum.
Excerpt: as §2, §3

The subject of data set [5] is E. coli. The description is as above. In kind it is cell-based. The note with it: Escherichia coli. An excerpt:
(§4) | **Dilution of overnight broth culture

Another data set concerns Ent. cloacae. The description is as above. In kind it is cell-based. The note with it: Enterobacter cloacae.
Excerpt: as §4

Data set [6] relates to K. pneumoniae. The data set is described as above. The note with it: Klebsiella pneumoniae. The data set is classed as cell-based.
Excerpt: as §4

In another data set the test system is Pr. mirabilis. Described as above. The conditions noted are these: Proteus mirabilis; Pr. mirabilis A9900 (10^-4). In kind it is cell-based.
Excerpt: as §4

For a further data set, the system named is Pr. morganii. The description is as above. The note with it: Morganella morganii; Pr. morganii A15153 (10^-4). The data set is classed as cell-based.
Excerpt: as §4

For another data set, the system named is Ps. aeruginosa. The data set is described as above. In kind it is cell-based. The conditions noted are these: Pseudomonas aeruginosa; read-out: M.I.C.
Excerpt: as §4

Data set [7] deals with S. aureus. The data set is described as above. In kind it is cell-based. The note with it: Staphylococcus aureus.
Excerpt: as §4

The next data set has as its system Sal. enteritidis. Described as above. The data set is classed as cell-based. The note with it: Salmonella enterica; Sal. enteritidis A9531 (10 ^4).
Excerpt: as §4

The subject of the next data set is Ser. marcescens. Described as above. The data set is classed as cell-based. The conditions noted are these: Serratia marcescens; Ser. marcescens A20019 (10^-4).
Excerpt: as §4

The nature of data set [8]: Solid stability at elevated temperatures.
A short description of data set [9]: Stability of aqueous solutions at room temperature (loss of activity).
A short description of data set [10]: Blood level in mice after intramuscular injection (Example 7). In kind it is in vivo. The note with it: mouse, im, intramuscularly, 10 mg./kg. of body weight, at 15 minutes. The method, then:
The IR and NMR were consistent with the title product, but indicated about 20% impurities, primarily starting material. When this compound was administered intramuscularly by injection at a dose of 10 mg./kg. of body weight in mice, a blood level of […]. was obtained at 15 minutes.

Molecules are shown by their SMILES. Values after ≈ are worked out from the molar mass of the structure shown. Structures can show the parent of a compound that is named as a salt. Some results are limits rather than exact numbers.

A word on the solubility: it is the concentration that dissolves in the medium under given conditions. The low end stands for a poorly soluble substance, the high end for a readily soluble substance.

With `Cn1nnnc1SCC1=C(C(=O)O)N2C(=O)[C@@H](NC(=O)Cc3ccccc3CN)[C@H]2SC1` [7-(o-aminomethylphenylacetamido)-3-(1-methyl-1,2,3,4-tetrazol-5-ylthiomethyl)-3-cephem-4-carboxylic acid], the “lowest pH able to dissolve 150 mg./ml.” value in data set [1] (room temperature) amounted to 10.3. In [1] (solubility, in both buffered aqueous media and in dog urine at room temperature), this molecule displayed a solubility of 1 to 3 mg/mL (≈ 2100 to 6310 µM).

As to `NCc1ccccc1CC(=O)N[C@@H]1C(=O)N2C(C(=O)O)=C(CSc3nnnn3CC(=O)O)CS[C@H]12` [BL-S786: L-Lysine Salt], in “physchem”, the degraded at 730 h was under 10%.

For the molecule `Cn1nnnc1SCC1=C(C(=O)O)N2C(=O)[C@@H](NC(=O)[C@H](O)c3ccccc3)[C@H]2SC1` [Cefamandole], the MIC was determined as 0.08 µg/mL (≈ 0.173 µM) against D. pneumoniae; 50 µg/mL (≈ 108 µM) with E. cloacae; 1.6 µg/mL (≈ 3.46 µM) against E. coli [2] (Ec-1 E. coli NIHJ); 0.8 µg/mL (≈ 1.73 µM) with E. coli [2] (Ec-3 E. coli Juhl A15119); 3.1 µg/mL (≈ 6.7 µM) against E. coli [2] (Ec-58 E. coli A9675); 0.8 µg/mL (≈ 1.73 µM) in the data set with K. pneumoniae [3] (Kp-3 K. pneumoniae A9977). The MIC against K. pneumoniae [3] (Kp-4 K. pneumoniae A15130) was 6.3 µg/mL (≈ 13.6 µM); against P. aeruginosa, over 100 µg/mL; with P. mirabilis, 0.8 µg/mL (≈ 1.73 µM); against P. morganii, 3.1 µg/mL (≈ 6.7 µM); with S. aureus [4] (Sa-2 S. aureus +50% serum), 1.6 µg/mL (≈ 3.46 µM); in the data set on S. aureus [4] (Sa-2 S. aureus Smith A9537), 0.8 µg/mL (≈ 1.73 µM). Further, the MIC is 1.6 µg/mL (≈ 3.46 µM) in the data set with S. aureus [4] (Sa-11 S. aureus BX-1633 A9606); 3.1 µg/mL (≈ 6.7 µM) against S. aureus [4] (Sa-44 S. aureus A15097); 0.4 µg/mL (≈ 0.865 µM) in the data set with S. enteritidis; over 100 µg/mL against S. marcescens; 0.08 µg/mL (≈ 0.173 µM) in the data set with S. pyogenes.

Take `NCC1=C(CC(=O)N[C@@H]2C(=O)N3C(C(=O)O)=C(CSc4nnnn4CC(=O)O)CS[C@H]23)CC=CC1` [Example 2, 7-(2-Aminomethyl-1,4-cyclohexadienylacetamido)-3-(1-carboxymethyltetrazol-5-ylthiomethyl)-3-cephem-4-carboxylic acid]: the MIC in the data set on Str. pneumoniae worked out at 0.06 µg/mL; in the data set on Str. pyogenes, 0.13 µg/mL; against E. coli [5] (E. coli A9675 (10^-4)), 16 µg/mL (≈ 30.7 µM); in the data set with E. coli [5] (E. coli Juhl A15119 (10^-4)) it was 1.3 µg/mL (≈ 2.49 µM); with Ent. cloacae (Ent. cloacae A9657 (10^-4)), 0.3 µg/mL (≈ 0.575 µM); against Ent. cloacae (Ent. cloacae A9659 (10^-4)) it was 32 µg/mL (≈ 61.4 µM). The MIC against Ent. cloacae (Ent. cloacae A9656 (10^-4)) is over 125 µg/mL; in the data set on K. pneumoniae [6] (K. pneumoniae A9977 (10^-4)) it was 0.3 µg/mL (≈ 0.575 µM); with K. pneumoniae [6] (K. pneumoniae A15130 (10^-4)), 2 µg/mL (≈ 3.83 µM); against Pr. mirabilis, 0.3 µg/mL (≈ 0.575 µM); with Pr. morganii it was 8 µg/mL (≈ 15.3 µM); in the data set on Ps. aeruginosa, over 125 µg/mL. Further, the MIC in the data set on S. aureus [7] (S. aureus BX1633 A9606 (10^-2)) is 2.5 µg/mL (≈ 4.79 µM); against S. aureus [7] (S. aureus BX1633 A9606 (10^-3)) it was 1.3 µg/mL (≈ 2.49 µM); against S. aureus [7] (S. aureus Meth-Res A15097 (10^-3)), 4 µg/mL (≈ 7.67 µM); in the data set on S. aureus [7] (S. aureus Smith A9537 (10^-4)), 0.5 µg/mL (≈ 0.959 µM); in the data set on S. aureus [7] (S. aureus-50% serum A9537 (10^-4)), over 0.5 µg/mL; against Sal. enteritidis it was 0.16 µg/mL (≈ 0.307 µM). Also, the MIC in the data set with Ser. marcescens is over 125 µg/mL.

In [1] (water, Solubility in water), `NCc1ccccc1CC(=O)N[C@@H]1C(=O)N2C(C(=O)O)=C(CSc3nnnn3CC(=O)O)CS[C@H]12` [Example 3] gave a solubility of over 500 mg/mL. The “relative stability of the solid at elevated temperatures” value in data set [8] was “not as stable at elevated temperatures”. The “loss of activity in solution” value in data set [9] (125.0 mg./ml. at pH 7.0, room temperature, at least 24 hours) is recorded as “no significant loss”. The “Stability in water (time stable)” value in data set [9] (room temperature at 250 mg./ml.) was “at least 24 hours”.

`NCc1ccccc1CC(=O)N[C@@H]1C(=O)N2C(C(=O)O)=C(CSc3nnnn3CCC(=O)O)CS[C@H]12` [Example 7, 7-(2-aminomethylphenylacetamido)-3-(1-carboxyethyltetrazol-5-ylthiomethyl)-3-cephem-4-carboxylic acid] displayed a concentration at 0.25 h in [10] of 22300 µg/mL.

As to `NCc1ccccc1CC(=O)N[C@@H]1C(=O)N2C(C(=O)O)=C(CSc3nnnn3CC(=O)O)CS[C@H]12` [Example 8, Monosodium BL-S786 Dihydrate], the Solubility in water in [1] (water, Dihydrate) is over 400 mg/mL. Besides, the “Stability of 250,000 unit/ml. solution” value in data set [9] (24 hours at room temperature) is recorded as “No loss”.

Regarding `CNCc1ccsc1CC(=O)N[C@@H]1C(=O)N2C(C(=O)O)=C(CSc3nnnn3CC(=O)O)CS[C@H]12` [Example 9, 7-(3-N-methylaminomethyl-2-thienylacetamido)-3-(1-carboxymethyltetrazol-5-ylthiomethyl)-3-cephem-4-carboxylic Acid], the MIC was 0.08 µg/mL (≈ 0.148 µM) in the data set on D. pneumoniae; 50 µg/mL (≈ 92.7 µM) with E. cloacae; 0.8 µg/mL (≈ 1.48 µM) against E. coli [2] (Ec-1 E. coli NIHJ); 0.8 µg/mL (≈ 1.48 µM) with E. coli [2] (Ec-3 E. coli Juhl A15119); 12.5 µg/mL (≈ 23.2 µM) against E. coli [2] (Ec-58 E. coli A9675); 0.2 µg/mL (≈ 0.371 µM) in the data set on K. pneumoniae [3] (Kp-3 K. pneumoniae A9977). Besides, the MIC in the data set with K. pneumoniae [3] (Kp-4 K. pneumoniae A15130) is 1.6 µg/mL (≈ 2.97 µM); in the data set on P. aeruginosa, over 100 µg/mL; with P. mirabilis, 0.4 µg/mL (≈ 0.741 µM); in the data set on P. morganii, 12.5 µg/mL (≈ 23.2 µM); against S. aureus [4] (Sa-2 S. aureus +50% serum) it was 3.1 µg/mL (≈ 5.74 µM); against S. aureus [4] (Sa-2 S. aureus Smith A9537), 3.1 µg/mL (≈ 5.74 µM). Moreover, the MIC against S. aureus [4] (Sa-11 S. aureus BX-1633 A9606) is 6.3 µg/mL (≈ 11.7 µM); in the data set with S. aureus [4] (Sa-44 S. aureus A15097) it was 12.5 µg/mL (≈ 23.2 µM); against S. enteritidis it was 0.2 µg/mL (≈ 0.371 µM); against S. marcescens, over 100 µg/mL; against S. pyogenes, 0.08 µg/mL (≈ 0.148 µM).
